Columns and labels:
[1] = Drug excipient compatibility study, chemical stability of binary mixtures of tesofensine and excipients; assay type: physicochemical
Text: A compatibility study investigating the chemical stability of binary mixtures of tesofensine and pharmaceutically acceptable excipients has been conducted.

[2] = Dissolution tests / dissolution profile; assay type: physicochemical
Protocol: The active ingredient dissolves from the coated tablets within 30 minutes. FIGS. 1, 2 and 3 show dissolution profiles for tesofensine compositions B and C with a dose strength of 0.25 mg, 0.5 mg and 1.0 mg.

[3] = Solubility of the active ingredient in granulating liquid; assay type: physicochemical; details: ethanol/mixtures compared to pure water or ethanol
Text: Microcrystalline cellulose also was compatible with the active ingredient. Hydroxypropylcellulose was selected as binder due to its compatibility with the active ingredient. The amount of binder was adequate to provide sufficient resistance to crushing and plasticity of the granules. Crosscarmelllose sodium was selected as disintegrant as it is an effective disintegrant and is compatible with the active ingredient. The amount of croscarmellose sodium was sufficient to provide the desired disintegration. The amount of magnesium stearate selected was sufficient to avoid sticking to tableting tooling during compression. Ethanol was selected as co-solvent in the granulating liquid as ethanol evaporates easily for improved drying properties of the granulate.

[4] = cited from earlier work

Row | Compound | Compatibility of excipient with tesofensine [1] | Solubility [2] | Solubility of the active ingredient [3] | in-vivo half-life [4] | Decomposition of tesofensine with excipient [1]
1 | O.OC[C@H]1O[C@@H](O[C@H]2[C@H](O)[C@@H](O)C(O)O[C@@H]2CO)[C@H](O)[C@@H](O)[C@H]1O (stereo partly drawn) [lactose, lactose monohydrate] | compatible | – | – | – | –
2 | CCOC[C@H]1C2CCC(C[C@@H]1c1ccc(Cl)c(Cl)c1)N2C (stereo partly drawn) [tesofensine, (3S,4R)-3-(3,4-dichlorophenyl)-4-(ethoxymethyl)-8-methyl-8-azabicyclo[3.2.1]octane] | – | readily soluble | increased | in the range of days | –
3 | magnesium stearate | Incompatibility | – | – | – | the extent of decomposition was low
